From patent publication US12054447B2, “PCNA inhibitors” (City of Hope, priority 2015, dated 2024)

Each molecule was assayed on MOLT-4 (assay: NCI-60 panel test). Conditions: Homo sapiens; MOLT-4, NCI-60 5-dose study.
Type: cell-based
Method: (§1) FIG. 7. NCI-60 panel test. The effect of AOH1160 on growth of the NCI-60 panel, which consists of 60 cancer cell lines representing 9 major cancer types, was tested in a 5-dose study. Shown are the Log IC50 values determined for each cell line. […] This study was performed by the National Institute of Cancer.
(§2) As observed in FIG. 7, the effect of AOH1160 on growth of the NCI-60 panel, which consists of 60 cancer cell lines representing 9 major cancer types, was tested in a 5-dose study. Shown are the Log IC50 values determined for each cell line.

SMILES	GI50
COc1ccc(Oc2ccccc2NC(=O)CNC(=O)c2cccc3ccccc23)cc1 [PCNA6]	955 nM

What follows are molecules tested on SF-268 (assay: NCI-60 panel test). Conditions: Homo sapiens.
Type: cell-based
Method: as §1, §2

SMILES	GI50
COc1ccc(Oc2ccccc2NC(=O)CNC(=O)c2cccc3ccccc23)cc1 [PCNA6]	2040 nM

Each molecule was assayed on NCI/ADR-RES (assay: NCI-60 panel test). Conditions: Homo sapiens, NCI-60 5-dose study.
Type: cell-based
Method: as §1, §2

SMILES	GI50
COc1ccc(Oc2ccccc2NC(=O)CNC(=O)c2cccc3ccccc23)cc1 [PCNA6]	427 nM

These molecules were tested on HCT-116 (assay: NCI-60 panel test). Conditions: Homo sapiens; HCT-116, NCI-60 5-dose study.
Type: cell-based
Method: as §1, §2

SMILES	GI50
COc1ccc(Oc2ccccc2NC(=O)CNC(=O)c2cccc3ccccc23)cc1 [PCNA6]	617 nM

Each molecule was assayed on OVCAR-5 (assay: NCI-60 panel test). Conditions: Homo sapiens; OVCAR-5, NCI-60 5-dose study.
Type: cell-based
Method: as §1, §2

SMILES	GI50
COc1ccc(Oc2ccccc2NC(=O)CNC(=O)c2cccc3ccccc23)cc1 [PCNA6]	2000 nM

Each molecule was assayed on CCRF-CEM (assay: NCI-60 panel test). Conditions: Homo sapiens, NCI-60 5-dose study.
Type: cell-based
Method: as §1, §2

SMILES	GI50
COc1ccc(Oc2ccccc2NC(=O)CNC(=O)c2cccc3ccccc23)cc1 [PCNA6]	912 nM

Each molecule was assayed on SN12C (assay: NCI-60 panel test). Conditions: Homo sapiens, NCI-60 5-dose study.
Type: cell-based
Method: as §1, §2

SMILES	GI50
COc1ccc(Oc2ccccc2NC(=O)CNC(=O)c2cccc3ccccc23)cc1 [PCNA6]	2290 nM

The molecules below were run on NCI-H522 (assay: NCI-60 panel test). Conditions: Homo sapiens; NCI-H522, NCI-60 5-dose study.
Type: cell-based
Method: as §1, §2

SMILES	GI50
COc1ccc(Oc2ccccc2NC(=O)CNC(=O)c2cccc3ccccc23)cc1 [PCNA6]	195 nM

These molecules were tested on M14 (assay: NCI-60 panel test). Conditions: Homo sapiens; M14, NCI-60 5-dose study.
Type: cell-based
Method: as §1, §2

SMILES	GI50
COc1ccc(Oc2ccccc2NC(=O)CNC(=O)c2cccc3ccccc23)cc1 [PCNA6]	550 nM

What follows are molecules tested on IGROV1 (assay: NCI-60 panel test). Conditions: Homo sapiens, IGROV-1; IGROV1, NCI-60 5-dose study.
Type: cell-based
Method: as §1, §2

SMILES	GI50
COc1ccc(Oc2ccccc2NC(=O)CNC(=O)c2cccc3ccccc23)cc1 [PCNA6]	1580 nM

The molecules below were run on MALME-3M (assay: NCI-60 panel test). Conditions: Homo sapiens, NCI-60 5-dose study.
Type: cell-based
Method: as §1, §2

SMILES	GI50
COc1ccc(Oc2ccccc2NC(=O)CNC(=O)c2cccc3ccccc23)cc1 [PCNA6]	25100 nM

The molecules below were run on LOX IMVI (assay: NCI-60 panel test). Conditions: Homo sapiens, NCI-60 5-dose study.
Type: cell-based
Method: as §1, §2

SMILES	GI50
COc1ccc(Oc2ccccc2NC(=O)CNC(=O)c2cccc3ccccc23)cc1 [PCNA6]	1350 nM

These molecules were tested on MDA-MB-468 (assay: NCI-60 panel test). Conditions: Homo sapiens; MDA-MB-468, NCI-60 5-dose study.
Type: cell-based
Method: as §1, §2

SMILES	GI50
COc1ccc(Oc2ccccc2NC(=O)CNC(=O)c2cccc3ccccc23)cc1 [PCNA6]	457 nM

What follows are molecules tested on HOP-92 (assay: NCI-60 panel test). Conditions: Homo sapiens; HOP-92, NCI-60 5-dose study.
Type: cell-based
Method: as §1, §2

SMILES	GI50
COc1ccc(Oc2ccccc2NC(=O)CNC(=O)c2cccc3ccccc23)cc1 [PCNA6]	25100 nM

What follows are molecules tested on NCI-H226 (assay: NCI-60 panel test). Conditions: Homo sapiens; NCI-H226, NCI-60 5-dose study.
Type: cell-based
Method: as §1, §2

SMILES	GI50
COc1ccc(Oc2ccccc2NC(=O)CNC(=O)c2cccc3ccccc23)cc1 [PCNA6]	4270 nM

The molecules below were run on HCC-2998 (assay: NCI-60 panel test). Conditions: Homo sapiens; HCC-2998, NCI-60 5-dose study.
Type: cell-based
Method: as §1, §2

SMILES	GI50
COc1ccc(Oc2ccccc2NC(=O)CNC(=O)c2cccc3ccccc23)cc1 [PCNA6]	1410 nM

These molecules were tested on KM12 (assay: NCI-60 panel test). Conditions: Homo sapiens; KM12, NCI-60 5-dose study.
Type: cell-based
Method: as §1, §2

SMILES	GI50
COc1ccc(Oc2ccccc2NC(=O)CNC(=O)c2cccc3ccccc23)cc1 [PCNA6]	575 nM

Each molecule was assayed on SK-MEL-28 (assay: NCI-60 panel test). Conditions: Homo sapiens; SK-MEL-28, NCI-60 5-dose study.
Type: cell-based
Method: as §1, §2

SMILES	GI50
COc1ccc(Oc2ccccc2NC(=O)CNC(=O)c2cccc3ccccc23)cc1 [PCNA6]	380 nM

What follows are molecules tested on SK-OV-3 (assay: NCI-60 panel test). Conditions: Homo sapiens; SK-OV-3, NCI-60 5-dose study.
Type: cell-based
Method: as §1, §2

SMILES	GI50
COc1ccc(Oc2ccccc2NC(=O)CNC(=O)c2cccc3ccccc23)cc1 [PCNA6]	1020 nM

The molecules below were run on MDA-MB-435 (assay: NCI-60 panel test). Conditions: Homo sapiens; MDA-MB-435, NCI-60 5-dose study.
Type: cell-based
Method: as §1, §2

SMILES	GI50
COc1ccc(Oc2ccccc2NC(=O)CNC(=O)c2cccc3ccccc23)cc1 [PCNA6]	83.2 nM

Each molecule was assayed on COLO 205 (assay: NCI-60 panel test). Conditions: Homo sapiens.
Type: cell-based
Method: as §1, §2

SMILES	GI50
COc1ccc(Oc2ccccc2NC(=O)CNC(=O)c2cccc3ccccc23)cc1 [PCNA6]	646 nM

These molecules were tested on RXF 393 (assay: NCI-60 panel test). Conditions: Homo sapiens; RXF 393, NCI-60 5-dose study.
Type: cell-based
Method: as §1, §2

SMILES	GI50
COc1ccc(Oc2ccccc2NC(=O)CNC(=O)c2cccc3ccccc23)cc1 [PCNA6]	490 nM

What follows are molecules tested on PC-3 (assay: NCI-60 panel test). Conditions: Homo sapiens; PC-3, NCI-60 5-dose study.
Type: cell-based
Method: as §1, §2

SMILES	GI50
COc1ccc(Oc2ccccc2NC(=O)CNC(=O)c2cccc3ccccc23)cc1 [PCNA6]	1050 nM

What follows are molecules tested on 786-0 (assay: NCI-60 panel test). Conditions: Homo sapiens; 786-0, NCI-60 5-dose study.
Type: cell-based
Method: as §1, §2

SMILES	GI50
COc1ccc(Oc2ccccc2NC(=O)CNC(=O)c2cccc3ccccc23)cc1 [PCNA6]	1150 nM

These molecules were tested on SK-MEL-2 (assay: NCI-60 panel test). Conditions: Homo sapiens; SK-MEL-2, NCI-60 5-dose study.
Type: cell-based
Method: as §1, §2

SMILES	GI50
COc1ccc(Oc2ccccc2NC(=O)CNC(=O)c2cccc3ccccc23)cc1 [PCNA6]	2290 nM

Each molecule was assayed on BT-549 (assay: NCI-60 panel test). Conditions: Homo sapiens; BT-549, NCI-60 5-dose study.
Type: cell-based
Method: as §1, §2

SMILES	GI50
COc1ccc(Oc2ccccc2NC(=O)CNC(=O)c2cccc3ccccc23)cc1 [PCNA6]	1120 nM

What follows are molecules tested on HCT-15 (assay: NCI-60 panel test). Conditions: Homo sapiens; HCT-15, NCI-60 5-dose study.
Type: cell-based
Method: as §1, §2

SMILES	GI50
COc1ccc(Oc2ccccc2NC(=O)CNC(=O)c2cccc3ccccc23)cc1 [PCNA6]	589 nM

What follows are molecules tested on NCI-H322M (assay: NCI-60 panel test). Conditions: Homo sapiens, NCI-60 5-dose study.
Type: cell-based
Method: as §1, §2

SMILES	GI50
COc1ccc(Oc2ccccc2NC(=O)CNC(=O)c2cccc3ccccc23)cc1 [PCNA6]	1230 nM

Each molecule was assayed on SNB-19 (assay: NCI-60 panel test). Conditions: Homo sapiens; SNB-19, NCI-60 5-dose study.
Type: cell-based
Method: as §1, §2

SMILES	GI50
COc1ccc(Oc2ccccc2NC(=O)CNC(=O)c2cccc3ccccc23)cc1 [PCNA6]	1230 nM

The molecules below were run on SW-620 (assay: NCI-60 panel test). Conditions: Homo sapiens; SW-620, NCI-60 5-dose study.
Type: cell-based
Method: as §1, §2

SMILES	GI50
COc1ccc(Oc2ccccc2NC(=O)CNC(=O)c2cccc3ccccc23)cc1 [PCNA6]	676 nM

Each molecule was assayed on OVCAR-8 (assay: NCI-60 panel test). Conditions: Homo sapiens; OVCAR-8, NCI-60 5-dose study.
Type: cell-based
Method: as §1, §2

SMILES	GI50
COc1ccc(Oc2ccccc2NC(=O)CNC(=O)c2cccc3ccccc23)cc1 [PCNA6]	1150 nM

The molecules below were run on HOP-62 (assay: NCI-60 panel test). Conditions: Homo sapiens; HOP-62, NCI-60 5-dose study.
Type: cell-based
Method: as §1, §2

SMILES	GI50
COc1ccc(Oc2ccccc2NC(=O)CNC(=O)c2cccc3ccccc23)cc1 [PCNA6]	724 nM

Each molecule was assayed on NCI-H23 (assay: NCI-60 panel test). Conditions: Homo sapiens; NCI-H23, NCI-60 5-dose study.
Type: cell-based
Method: as §1, §2

SMILES	GI50
COc1ccc(Oc2ccccc2NC(=O)CNC(=O)c2cccc3ccccc23)cc1 [PCNA6]	1290 nM

The molecules below were run on A498 (assay: NCI-60 panel test). Conditions: Homo sapiens; A498, NCI-60 5-dose study.
Type: cell-based
Method: as §1, §2

SMILES	GI50
COc1ccc(Oc2ccccc2NC(=O)CNC(=O)c2cccc3ccccc23)cc1 [PCNA6]	562 nM

Each molecule was assayed on U251 (assay: NCI-60 panel test). Conditions: Homo sapiens, U-251; U251, NCI-60 5-dose study.
Type: cell-based
Method: as §1, §2

SMILES	GI50
COc1ccc(Oc2ccccc2NC(=O)CNC(=O)c2cccc3ccccc23)cc1 [PCNA6]	1050 nM

Each molecule was assayed on MCF7 (assay: NCI-60 panel test). Conditions: Homo sapiens; MCF7, NCI-60 5-dose study.
Type: cell-based
Method: as §1, §2

SMILES	GI50
COc1ccc(Oc2ccccc2NC(=O)CNC(=O)c2cccc3ccccc23)cc1 [PCNA6]	257 nM

These molecules were tested on K-562 (assay: NCI-60 panel test). Conditions: Homo sapiens, K562; K-562, NCI-60 5-dose study.
Type: cell-based
Method: as §1, §2

SMILES	GI50
COc1ccc(Oc2ccccc2NC(=O)CNC(=O)c2cccc3ccccc23)cc1 [PCNA6]	145 nM
